Experimental data: patent US7271261B2, “Substituted benzimidazoles and imidazo-[4,5]-pyridines” (Ortho-McNeil Pharmaceutical, Inc., priority 2001, dated 2007)

What was measured:
spleen cells = assay: Radiation-induced apoptosis in splenocytes in vivo; settings: female C57/BL mice, 4Gy whole-animal γ-radiation, compared to animals dosed with vehicle alone
Protocol: Determination of the Effect of Cds1 Inhibitory Compounds on Radiation-Induced Apoptosis in Splenocytes in vivo
Female C57/BL mice, 6-8 weeks of age, were dosed by oral gavage or by injection with Cds1 inhibitory compound before and at regular intervals after radiation exposure. One to three hours after first compound dose, the animals were irradiated with γ-rays administered to the whole animal at a dose between 0.5 and 4 Gy. At times between 4 and 24 h after irradiation, the animals were sacrificed, and the tissues of interest were excised. […] Briefly, cells or tissues are fixed with formaldehyde and permeabilized with ethanol, and DNA ends are then labelled by attaching nucleotide derivatives such as BrdUTP using the enzyme terminal deoxynucleotidyl transferase. DNA ends can then be detected by incubating the cells or tissues with fluorescently-labelled antibodies reactive with BrdU. Quantification can be done by laser scanning cytometry, by visual microscopical examination or by FACS.

[1] = tested on: cells from an established tumor line; assay: Effect of Cds1 inhibitory compounds on tumor cell line clonogenic survival; assay type: cell-based; settings: compound exposure 12 to 48 h with DNA-damaging second agent; compared to control group having no compound
Protocol: Typically 3 to 300 cells from an established tumor line were plated per cm^2 in petri dishes in the appropriate growth medium at 37° C. Cells were exposed to compounds dissolved in the growth medium from appropriately formulated stock solutions for times ranging from 12 to 48 h. During the course of compound exposure the cells were treated with a second agent with DNA-damaging capabilities, such as ionizing radiation or certain chemotherapeutic compounds. After this treatment regimen cells were incubated in growth medium containing no compound for a period of 7 to 14 days. At that time the cells were fixed with methanol and stained with 0.25% crystal violet. The number of colonies of cells exceeding 50 cells was determined for each treatment, and this number was used to calculate the effect of compounds on the survival of cells.

[2] = tested on: tumor cells from an established tumor cell line; assay: Effect of Cds1 inhibitors on tumor growth in murine xenograft models; assay type: in vivo; settings: xenograft in athymic nu/nu mice, compound plus local irradiation
Protocol: Effect of Cds1 Inhibitors on Tumor Growth in Murine Xenograft Models
One×10^6 to ten×10^6 tumor cells from an established tumor cell line are injected in the hind limbs of athymic nu/nu mice. Tumors are allowed to grow until they reach 30-100 mm^3. At that time mice are randomized into different treatment groups, and compound or vehicle is administered by injection or oral gavage. […] After this treatment tumor growth rate is followed by measurement of tumor size twice weekly in three orthogonal directions, which is used to calculate the tumor volume.

spleen B cells = assay: Radiation-induced apoptosis in isolated primary cells (Annexin V staining); assay type: cell-based, C57/BL6 mice; settings: isolated C57/BL6 spleen cells, 0.5-1 Gy 137Cs γ-radiation, Annexin V/propidium iodide FACS 6-24 h after irradiation
Protocol: Determination of the Effect of Cds1 Inhibitory Compounds on Radiation-Induced Apoptosis in Isolated Primary Cells
Spleen cells were isolated from C57/BL6 mice as follows: Spleens were disrupted by grinding between two frosted glass slides, and cells were passed through a cell strainer. Erythrocytes were lysed by incubation in ammonium chloride solution followed by careful washing of cells in isotonic medium. The spleen cells were plated in 60 mm petri dishes at 5×10^6 cells/mL in RPMI medium containing 10% fetal calf serum and Cds1 inhibitor. […] Determination of apoptotic cells by Annexin V staining was performed using the Annexin V-FITC Apoptosis Detection Kit™ (Cat# PF032 Oncogene Research Products) according to the manufacturer's instructions. Briefly, 6-24 h after irradiation, the cells were washed with buffered isotonic salt solution and suspended at 1×10^6 cells/mL in binding buffer (10 mM Hepes pH 7.4, 150 mM NaCl, 2.5 mM CaCl2, 1 mM MgCl2, 4% bovine serum albumin) containing 80 ng/mL Annexin V labelled with FITC and 0.4 μg/mL anti-B220 antibody labelled with allophycocyanin. The cells were then pelleted and resuspended in binding buffer containing 0.6 μg/mL propidium iodide. The stained cells were analyzed on a FACS machine (Fluorescence Activated Cell Sorter™, Becton Dickinson). […] Fraction of non-apoptotic B-cells or total cells were determined separately based on staining with the B220 antibody mentioned above.

SMILES	protection of spleen B cells from radiation-induced apoptosis (spleen B cells)	other results
NC(=O)c1ccc2[nH]c(-c3ccc(Oc4ccc(Cl)cc4)cc3)nc2c1 [Example 1, 2-[4-(4-Chloro-phenoxy)-phenyl]-1H-benzoimidazole-5-carboxylic acid amide]	protected spleen B cells from radiation-induced apoptosis	protection of spleen cells from apoptosis (spleen cells): protection of spleen cells from apoptosis was observed; number of colonies of cells (clonogenic survival) [1]: decrease in the number of colonies of cells; tumor growth rate (tumor volume) [2]: inconclusive
NC(=O)c1ccc2[nH]c(-c3ccc(Oc4ccc5ccccc5c4)cc3)nc2c1 [Example 9, 2-[4-(2-Naphthyloxy)-phenyl]-1H-benzoimidazole-5-carboxylic acid amide]	protected spleen B cells from radiation-induced apoptosis	
NC(=O)c1ccc2[nH]c(-c3ccc(Oc4ccc(Br)cc4)cc3)nc2c1 [Example 11, 2-[4-(4-Bromo-phenoxy)-phenyl]-1H-benzoimidazole-5-carboxylic acid amide]	protected spleen B cells from radiation-induced apoptosis	
NC(=O)c1ccc2[nH]c(-c3ccc(Sc4ccc(F)c(Cl)c4)cc3)nc2c1 [Example 38, 2-[4-(3-Chloro-4-fluoro-phenylsulfanyl)-phenyl]-1H-benzoimidazole-5-carboxylic acid amide]	protected spleen B cells from radiation-induced apoptosis	
NC(=O)c1ccc2[nH]c(-c3ccc(Sc4ccc(Cl)cc4)nc3)nc2c1 [Example 42, 2-[6-(4-Chloro-phenylsulfanyl)-pyridin-3-yl]-1H-benzoimidazole-5-carboxylic acid amide]	protected spleen B cells from radiation-induced apoptosis	
Cc1ccc(Sc2ccc(-c3nc4cc(C(N)=O)ccc4[nH]3)cn2)cc1 [Example 43, 2-[6-(4-Methyl-phenylsulfanyl)-pyridin-3-yl]-1H-benzoimidazole-5-carboxylic acid amide]	protected spleen B cells from radiation-induced apoptosis	
NC(=O)c1ccc2[nH]c(-c3ccc(Oc4ccc5c(c4)OCO5)cc3)nc2c1 [Example 84, 2-[4-(Benzo[1,3]dioxol-5-yloxy)-phenyl]-1H-benzoimidazole-5-carboxylic acid amide]	protected spleen B cells from radiation-induced apoptosis	
NC(=O)c1ccc2[nH]c(-c3ccc(Sc4ccc(O)cc4)cc3)nc2c1 [Example 87, 2-[4-(4-Hydroxy-phenylsulfanyl)-phenyl]-1H-benzoimidazole-5-carboxylic acid amide]	protected spleen B cells from radiation-induced apoptosis	
NC(=O)c1ccc2[nH]c(-c3ccc(Oc4ccc(Br)c(O)c4)cc3)nc2c1 [Example 88, 2-[4-(4-Bromo-3-hydroxy-phenoxy)-phenyl]-1H-benzoimidazole-5-carboxylic acid amide]	protected spleen B cells from radiation-induced apoptosis	
NS(=O)(=O)c1ccc2[nH]c(-c3ccc(Oc4ccc(Cl)cc4)cc3)nc2c1 [Example 94, 2-[4-(4-Chloro-phenoxy)-phenyl]-1H-benzoimidazole-5-sulfonic acid amide]	protected spleen B cells from radiation-induced apoptosis	
NC(=O)c1ccc2[nH]c(-c3ccc(Oc4ccc(I)cc4)cc3)nc2c1 [Example 97, 2-[4-(4-Iodo-phenoxy)-phenyl]-1H-benzoimidazole-5-carboxylic acid amide]	protected spleen B cells from radiation-induced apoptosis	
